The target in experiment [1] is T1, pcDHFR (Pneumocystis carinii, UniProt P16184).
T1 sequence (P16184 1-206): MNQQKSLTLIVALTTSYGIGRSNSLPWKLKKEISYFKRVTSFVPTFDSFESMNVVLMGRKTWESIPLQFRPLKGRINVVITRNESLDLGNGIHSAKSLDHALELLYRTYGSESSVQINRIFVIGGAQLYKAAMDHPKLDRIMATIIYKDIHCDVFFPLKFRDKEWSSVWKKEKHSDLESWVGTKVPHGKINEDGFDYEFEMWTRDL
Conditions: previously reported quinazolines; cited from earlier work.

Experiment [2] deals with T2, tgDHFR (Toxoplasma gondii, UniProt Q07422).
T2 sequence (Q07422 1-610): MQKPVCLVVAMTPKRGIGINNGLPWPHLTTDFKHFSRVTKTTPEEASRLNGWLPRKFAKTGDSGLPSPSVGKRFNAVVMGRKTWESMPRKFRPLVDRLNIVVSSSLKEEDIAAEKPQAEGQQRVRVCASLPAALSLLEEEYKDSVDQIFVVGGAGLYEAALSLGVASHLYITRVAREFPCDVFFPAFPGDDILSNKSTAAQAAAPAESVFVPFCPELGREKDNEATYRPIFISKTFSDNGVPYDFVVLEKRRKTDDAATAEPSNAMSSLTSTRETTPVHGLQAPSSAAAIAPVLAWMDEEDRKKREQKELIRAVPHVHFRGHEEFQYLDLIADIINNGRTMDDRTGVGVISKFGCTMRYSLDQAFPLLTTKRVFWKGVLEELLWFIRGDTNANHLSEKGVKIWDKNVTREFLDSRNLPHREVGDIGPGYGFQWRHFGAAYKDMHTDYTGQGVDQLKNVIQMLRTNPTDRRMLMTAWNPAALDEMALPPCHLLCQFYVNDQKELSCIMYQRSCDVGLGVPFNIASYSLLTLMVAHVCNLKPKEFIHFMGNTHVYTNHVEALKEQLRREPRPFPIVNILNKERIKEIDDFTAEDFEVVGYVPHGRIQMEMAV
As to conditions: previously reported quinazolines; cited from earlier work.

For experiment [3], the target named is T1, pcDHFR. Nature of the experiment: Inhibition of P. carinii DHFR. It is filed as biochemical.
The next experiment addresses T3, rlDHFR (Rattus norvegicus, UniProt Q920D2).
T3 sequence (Q920D2 1-187): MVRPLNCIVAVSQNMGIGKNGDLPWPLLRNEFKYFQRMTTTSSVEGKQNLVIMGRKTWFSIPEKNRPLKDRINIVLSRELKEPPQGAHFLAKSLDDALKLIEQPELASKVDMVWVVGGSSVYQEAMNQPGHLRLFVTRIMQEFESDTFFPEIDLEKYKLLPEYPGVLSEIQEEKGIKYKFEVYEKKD
In words: Inhibition of rat liver DHFR. It is filed as biochemical.

Experiment [4] has as its target T2, tgDHFR. In words: biochemical.
The target of a further experiment is T4, maDHFR (Mycobacterium avium, UniProt O30463).
T4 sequence (O30463 1-181): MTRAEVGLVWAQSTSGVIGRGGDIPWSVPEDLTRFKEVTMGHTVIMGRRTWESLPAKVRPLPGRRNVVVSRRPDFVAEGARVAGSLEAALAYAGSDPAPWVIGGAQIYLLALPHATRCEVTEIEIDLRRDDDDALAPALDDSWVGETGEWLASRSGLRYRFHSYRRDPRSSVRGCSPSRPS
Nature of the experiment: Inhibition of M. avium DHFR. It is filed as biochemical.

Data on two compounds can be found in PMC3885247 (Journal of medicinal chemistry, 2008).

As for `COc1ccc(OC)c(CNc2ccc3nc(N)nc(N)c3c2)c1` [Compound 3], the Selectivity ratio rl/pc on pcDHFR [1] is 0.2. In addition, the Selectivity ratio rl/tg on tgDHFR [2] is recorded as 7.

As for `COc1ccc(OC)c(CN(CC2CC2)c2ccc3nc(N)nc(N)c3c2)c1` [Compound 12, 2,4-Diamino-6-[N-(2,5-dimethoxybenzyl)-N-cyclopropylmethylamino]quinazoline], the IC50 against pcDHFR [3] was found to be 25 nM; on rlDHFR it was 9.6 nM; on tgDHFR [4], 7.3 nM; against maDHFR, 16 nM. In addition, the “Selectivity ratio rl/pc (IC50 rlDHFR/IC50 pcDHFR)” value at pcDHFR [3] came to 0.4. Moreover, the “Selectivity ratio rl/tg (IC50 rlDHFR/IC50 tgDHFR)” value at tgDHFR [4] stood at 1.3. Moreover, the “Fold decrease in potency against maDHFR compared to 10” value at maDHFR (comparator 10) was determined as 5 fold.
